# In ChEMBL document CHEMBL5528064, “Invention of MK-7845, a SARS-CoV-2 3CL Protease Inhibitor Employing a Novel Difluorinated Glutamine Mimic” (J Med Chem, 2024):
# Active and inactive are the calls of the source. The rule behind the calls is not given here.
# What was measured:
# Cytochrome P450 2C8 = target: T1, Cytochrome P450 2C8 (Homo sapiens, UniProt P10632); assay: Reversible inhibition of CYP2C8 in human liver microsomes using amodiaquine as substrate incubated for 5 mins in presence of NADPH-generating system by LC-MS/MS analysis; assay type: ADME, Microsome
# T1 sequence (P10632 whole entry): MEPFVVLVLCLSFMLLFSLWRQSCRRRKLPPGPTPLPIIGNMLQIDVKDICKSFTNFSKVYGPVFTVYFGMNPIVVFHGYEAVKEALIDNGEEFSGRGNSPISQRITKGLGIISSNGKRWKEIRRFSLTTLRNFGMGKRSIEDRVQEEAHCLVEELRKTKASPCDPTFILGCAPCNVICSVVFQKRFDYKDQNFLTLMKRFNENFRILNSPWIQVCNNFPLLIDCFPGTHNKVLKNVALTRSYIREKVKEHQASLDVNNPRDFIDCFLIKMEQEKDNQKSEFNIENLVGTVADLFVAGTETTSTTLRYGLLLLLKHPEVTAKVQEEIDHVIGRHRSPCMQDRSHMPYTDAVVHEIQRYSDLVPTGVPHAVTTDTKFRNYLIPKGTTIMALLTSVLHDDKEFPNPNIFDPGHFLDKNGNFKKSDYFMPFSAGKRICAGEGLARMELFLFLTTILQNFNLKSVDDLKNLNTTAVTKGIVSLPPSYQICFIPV
# SARS-CoV-2 [1] = assay: Antiviral activity against SARS CoV-2 USA-WA1/2020 infected in B6.Cg-Tg(K18-ACE2)2Prlmn/J mouse assessed as protection against body weight loss at 100 to 500 mg/kg, po bid measured daily for 4 days post inoculation; assay type: functional, organism-based; conditions: Severe acute respiratory syndrome coronavirus 2, dose 100-500 mg/kg, time 4.0 day
# [2] = Volume of distribution at steady state in dog by measuring compound and its epimer at 3 mg/kg, po or 1 mg/kg, iv measured upto 24 hrs by LC-MS analysis; assay type: ADME, organism-based, Canis lupus familiaris; conditions: in vivo
# SARS-CoV-2 [3] = assay: Antiviral activity against SARS CoV-2 USA-WA1/2020 infected in po dosed B6.Cg-Tg(K18-ACE2)2Prlmn/J mouse assessed as reduction in viral RNA level administered orally twice daily and measured on day 4 post inoculation by RT-PCR analysis; assay type: functional, organism-based; conditions: Severe acute respiratory syndrome coronavirus 2, dose 100-500 mg/kg, time 4.0 day
# [4] = Plasma protein binding in human assessed as unbound fraction at 1 uM; assay type: ADME, cell-free
# SARS-CoV-2 [5] = assay: Antiviral activity against SARS CoV-2 USA-WA1/2020 infected in B6.Cg-Tg(K18-ACE2)2Prlmn/J mouse assessed as fold reduction in viral load in lung at 500 mg/kg, po bid measured on day 4 post inoculation; assay type: functional, Severe acute respiratory syndrome coronavirus 2; conditions: time 4 day
# [6] = Plasma protein binding in monkey assessed as unbound fraction at 1 uM; assay type: ADME, cell-free, Macaca mulatta; conditions: rhesus monkey
# Cytochrome P450 1A2 = target: T2, Cytochrome P450 1A2 (Homo sapiens, UniProt P05177); assay: Reversible inhibition of CYP1A2 in human liver microsomes using phenacetin as substrate incubated for 5 mins in presence of NADPH-generating system by LC-MS/MS analysis; assay type: ADME, Microsome
# T2 sequence (P05177 whole entry): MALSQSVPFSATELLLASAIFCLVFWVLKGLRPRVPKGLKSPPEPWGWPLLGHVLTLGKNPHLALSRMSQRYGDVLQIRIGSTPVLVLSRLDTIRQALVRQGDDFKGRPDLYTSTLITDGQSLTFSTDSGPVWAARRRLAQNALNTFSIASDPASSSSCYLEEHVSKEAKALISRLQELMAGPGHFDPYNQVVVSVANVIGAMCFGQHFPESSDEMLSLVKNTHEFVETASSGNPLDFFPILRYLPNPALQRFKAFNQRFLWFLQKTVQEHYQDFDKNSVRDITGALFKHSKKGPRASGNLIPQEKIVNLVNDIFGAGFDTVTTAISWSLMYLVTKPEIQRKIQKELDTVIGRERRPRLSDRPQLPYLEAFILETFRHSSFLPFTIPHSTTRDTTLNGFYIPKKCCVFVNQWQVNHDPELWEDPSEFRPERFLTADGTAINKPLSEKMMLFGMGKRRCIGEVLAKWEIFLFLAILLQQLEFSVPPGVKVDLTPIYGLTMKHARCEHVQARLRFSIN
# Cytochrome P450 3A4 = Cytochrome P450 3A4 (Homo sapiens, UniProt P08684); assay: Induction of CYP3A4 in human hepatocytes assessed as increase in CYP3A4 mRNA level at 20 uM measured after 48 hrs by PCR analysis relative to control; assay type: ADME, cell-based, Hepatocyte
# Cytochrome P450 2C19 = Cytochrome P450 2C19 (Homo sapiens, UniProt P33261); assay: Reversible inhibition of CYP2C19 in human liver microsomes using S-mephenytoin as substrate incubated for 5 mins in presence of NADPH-generating system by LC-MS/MS analysis; assay type: ADME, Microsome
# SARS-CoV-2 [7] = assay: Antiviral activity against SARS-CoV-2 Delta B.1.617 AY-2 infected in human A549-hACE2-TMPRSS2 cells assessed as inhibition of virus induced cytopathic effect incubated for 72 hrs by celltiter glo assay; assay type: functional, organism-based; conditions: Severe acute respiratory syndrome coronavirus 2, Delta B.1.617 AY-2, A549-hACE2-TMPRSS2, 72 h
# [8] = Volume of distribution at steady state in rat by measuring compound and its epimer at 3 mg/kg, po or 1 mg/kg, iv measured upto 24 hrs by LC-MS analysis; assay type: ADME, organism-based; conditions: in vivo
# Cytochrome P450 2B6 = target: T3, Cytochrome P450 2B6 (Homo sapiens, UniProt P20813); assay: Induction of CYP2B6 in human hepatocytes assessed as increase in CYP2B6 mRNA level at 20 uM measured after 48 hrs by PCR analysis relative to control; assay type: ADME, cell-based, Hepatocyte
# T3 sequence (P20813 whole entry): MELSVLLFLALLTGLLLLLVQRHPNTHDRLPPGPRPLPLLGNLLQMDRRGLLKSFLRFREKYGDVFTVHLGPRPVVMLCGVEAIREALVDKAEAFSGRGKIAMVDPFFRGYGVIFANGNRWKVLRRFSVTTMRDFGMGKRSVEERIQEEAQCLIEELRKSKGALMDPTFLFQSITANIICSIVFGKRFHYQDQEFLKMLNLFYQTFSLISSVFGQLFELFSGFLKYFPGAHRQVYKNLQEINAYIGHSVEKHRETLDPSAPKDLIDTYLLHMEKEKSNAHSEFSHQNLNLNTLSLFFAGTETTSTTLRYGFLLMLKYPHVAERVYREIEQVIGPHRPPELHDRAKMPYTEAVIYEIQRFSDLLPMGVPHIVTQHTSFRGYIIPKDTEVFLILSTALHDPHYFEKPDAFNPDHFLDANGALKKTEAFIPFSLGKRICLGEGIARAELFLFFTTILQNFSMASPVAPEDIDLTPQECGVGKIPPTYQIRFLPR
# Cytochrome P450 3A4, sequence (P08684 whole entry): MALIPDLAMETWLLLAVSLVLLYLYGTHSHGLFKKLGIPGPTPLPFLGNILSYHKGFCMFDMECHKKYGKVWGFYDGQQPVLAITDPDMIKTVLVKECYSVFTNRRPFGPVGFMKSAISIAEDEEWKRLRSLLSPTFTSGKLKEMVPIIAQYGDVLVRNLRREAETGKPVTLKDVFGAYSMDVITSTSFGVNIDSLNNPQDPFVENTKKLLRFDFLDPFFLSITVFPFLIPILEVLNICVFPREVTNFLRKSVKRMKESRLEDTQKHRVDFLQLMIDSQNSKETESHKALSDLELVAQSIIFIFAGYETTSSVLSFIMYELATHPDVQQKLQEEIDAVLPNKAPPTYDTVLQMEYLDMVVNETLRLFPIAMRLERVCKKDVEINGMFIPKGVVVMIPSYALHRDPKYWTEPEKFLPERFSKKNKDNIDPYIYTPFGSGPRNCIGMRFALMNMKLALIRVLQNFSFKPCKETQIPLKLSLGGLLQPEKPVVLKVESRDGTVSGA
# Cytochrome P450 2C19, sequence (P33261 whole entry): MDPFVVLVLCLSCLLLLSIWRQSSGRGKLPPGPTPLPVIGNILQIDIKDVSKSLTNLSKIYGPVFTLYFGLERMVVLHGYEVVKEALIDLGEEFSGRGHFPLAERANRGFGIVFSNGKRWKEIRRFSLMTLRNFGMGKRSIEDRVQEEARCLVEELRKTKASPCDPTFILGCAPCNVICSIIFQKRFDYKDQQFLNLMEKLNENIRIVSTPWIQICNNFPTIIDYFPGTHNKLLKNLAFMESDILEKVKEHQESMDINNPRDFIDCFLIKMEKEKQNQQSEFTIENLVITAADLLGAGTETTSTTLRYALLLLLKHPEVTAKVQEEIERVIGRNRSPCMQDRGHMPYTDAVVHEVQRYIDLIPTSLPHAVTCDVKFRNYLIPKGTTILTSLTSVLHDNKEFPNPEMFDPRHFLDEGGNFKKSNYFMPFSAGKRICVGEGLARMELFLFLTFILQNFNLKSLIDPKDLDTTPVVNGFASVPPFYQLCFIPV
smiles,measurement,setting,value
CNC(=O)C(=O)[C@H](CCC(C)(F)F)NC(=O)[C@@H]1[C@H]2CCC[C@H]2CN1C(=O)[C@@H](NC(=O)OC)C(C)(C)C,IC50,Cytochrome P450 2C8,> 200 µM
same,Activity,SARS-CoV-2 [1],Active
same,Vdss,[2],0.4 L/kg
same,Activity,SARS-CoV-2 [3],Dose-Dependent Effect
same,fraction unbound at 1 µM,[4],0.27
same,fold change (FC),SARS-CoV-2 [5],5
same,fraction unbound at 1 µM,[6],0.5
same,IC50,Cytochrome P450 1A2,> 200 µM
same,Activity,Cytochrome P450 3A4,22%
same,IC50,Cytochrome P450 2C19,> 200 µM
same,IC50,SARS-CoV-2 [7],0.351 µM
same,Vdss,[8],2.8 L/kg
same,Activity,Cytochrome P450 2B6,7%
